From patent publication US20070254907A1, “COMPOSITIONS AND METHODS FOR CONTROLLING INFESTATION” (HATCHTECH PTY LTD, priority 2003, published 2007)
Where two headings read alike, the source gives them in different places.

What was measured:
head lice egg = assay: Head lice egg hatching, time course; type: in vivo, Pediculus humanus capitus; details: 10 mM; for inhibition at 10000 µM: Pediculus humanus, 10 minutes, read-out: Percent inhibition of egg hatching relative to the control
Experimental: Tests were carried out to determine if metal chelating agent and metalloprotease inhibitor 1,10-phenanthroline could inhibit head lice egg (Pediculus humanus capitus) hatching as opposed to body lice. Head lice eggs were obtained by placing groups of both 1-2 adult male and 6-8 adult female head lice in separate wells in a 24 well petri dish containing cotton cloth. The petri dish was transferred to a humid incubator at 32° C., 70% RH for 12 hours to permit the female lice to lay their eggs. After 12 hours, all adult lice were removed from the petri dish wells and a series of time-course experiments conducted. A group of eggs (24 hr old) was treated for 10 minutes with 200 μL of a 10 mM solution of 1,10-phenanthroline. A control (ie no inhibitor treatment) group of eggs was also included. The eggs were removed from the inhibitor, blotted dry on tissue paper, placed at 32° C., 70% RH and left to hatch. A second group of eggs, (48 hours old) were treated as previously described and also left to hatch. This process was repeated at 24 hour intervals on head lice eggs up to 120 hours post laying. This method of assaying inhibitors more closely mirrors the field situation where lice eggs will be at various stages of development on the head and permits the inhibitory effects to be observed on these different stages of the parasite.

H. contortus eggs = assay: Egg hatching in Haemonchus contortus; type: in vivo
Experimental: In an attempt to improve control of H. contortus the effects of the compound 5,5′-dimethyl-2,2′-dipyridyl was examined on H. contortus eggs. Eggs were recovered from the faeces of infected sheep using a standard sucrose floatation method. The eggs were corrected to a density of approximately 2,500 eggs per mL and were then exposed to varying concentrations of compound and incubated for 48 hours at 25° C. The eggs were then examined to determine the ovicidal efficacy of the compound in comparison to untreated control and a solvent only control.
In addition, the ovicidal efficacy of the compound 2-acetyl-1-tetralone was examined against H. contortus (FIG. 10). The same protocol was used as described for 5,5′-dimethyl-2,2′-dipyridyl.

body louse eggs = assay: Standard body louse egg assay with formulated compound; type: in vivo, body lice; details: 10 minute exposure; for % of eggs that hatched following treatment: formulated
Experimental: 5,5′-dimethyl-2,2′-dipyridyl was formulated and evaluated in the standard body louse egg assay. Body louse eggs (15-30 per replicate) of varying ages were exposed for 10 minute to the test solutions or a placebo or left untreated, followed by a 1 minute water wash and blotted dry. The eggs were then incubated at 30° C. over the following 10 days post treatment and the percentage of eggs that successfully hatched was determined (Table 20).

head lice eggs = assay: Head lice egg hatching with formulated compound; type: in vivo; details: 20 mM formulation
Experimental: Gravid female lice were permitted to lay eggs. The eggs were counted, inspected under a light microscope and all eggs that appeared undamaged were allocated to one of two treatment groups. One group was exposed to 5′-dimethyl-2,2′-dipyridyl in a formulation, while the second group was exposed to the formulation only. The protocol was as follows:
Treatments: 5'-dimethyl-2,2'dipyridyl (20mM) n=10
Vehicle control only n=10
Exposure time: 10 minutes
Wash time: 1 minute @˜37° C.
Incubation: All eggs were placed at 31° C. in a humid incubator and monitored for signs of development specifically of the eye and subsequent hatching, see Table 21.

`c1cnc2c(c1)ccc1cccnc12` [1,10-phenanthroline, reference compound] was tested, and the “inhibition of egg hatching in head lice” value (head lice egg) was “significantly inhibit egg hatching in head lice”, the inhibition at 10000 µM (head lice egg; treated day 1 post laying) was 100% and the inhibition at 10000 µM (head lice egg; treated day 2 post laying) was 87%. It also gave an inhibition at 10000 µM (head lice egg; treated day 3 post laying) of 88%, an inhibition at 10000 µM (head lice egg; treated day 4 post laying) of 100% and an inhibition at 10000 µM (head lice egg; treated day 5 post laying) of 100%.

With `Cc1ccc(-c2ccc(C)cn2)nc1` [5,5′-dimethyl-2,2′-dipyridyl] the “ovicidal efficacy on H. contortus eggs” value (H. contortus eggs; 180 and 18 ug/mL (1 and 0.1 mM), 48 hours at 25° C. (FIG. 8)) was “potently ovicidal”, the “effectiveness at inhibiting H. contortus egg hatching compared to ivermectin” value (H. contortus eggs; FIG. 8 versus FIG. 9) was about 10 × and the “ovicidal activity of formulated compound on body louse eggs” value (body louse eggs; 1 minute water wash) was “strong dose dependency of ovicidal activity”. For the same compound, the “% of eggs that hatched following treatment” value (body louse eggs; 1 mM, age of eggs 24 hr) was 91%, the “% of eggs that hatched following treatment” value (body louse eggs; 1 mM, age of eggs 48 hr) was 80% and the “% of eggs that hatched following treatment” value (body louse eggs; 1 mM, age of eggs 96 hr) was 82%. The “% of eggs that hatched following treatment” value (body louse eggs; 1 mM, age of eggs 120 hr) was 86%, the “% of eggs that hatched following treatment” value (body louse eggs; 5 mM, age of eggs 24 hr) was 21% and the “% of eggs that hatched following treatment” value (body louse eggs; 5 mM, age of eggs 48 hr) was 58%. For the same compound, the “% of eggs that hatched following treatment” value (body louse eggs; 5 mM, age of eggs 96 hr) was 64%, the “% of eggs that hatched following treatment” value (body louse eggs; 5 mM, age of eggs 120 hr) was 65% and the “% of eggs that hatched following treatment” value (body louse eggs; 10 mM, age of eggs 24 hr) was 4%. For the same compound, the “% of eggs that hatched following treatment” value (body louse eggs; 10 mM, age of eggs 48 hr) was 7%, the “% of eggs that hatched following treatment” value (body louse eggs; 10 mM, age of eggs 96 hr) was 10% and the “% of eggs that hatched following treatment” value (body louse eggs; 10 mM, age of eggs 120 hr) was 12%. The “% of eggs that hatched following treatment” value (body louse eggs; 30 mM, age of eggs 24 hr) was 0%, the “% of eggs that hatched following treatment” value (body louse eggs; 30 mM, age of eggs 48 hr) was 0% and the “% of eggs that hatched following treatment” value (body louse eggs; 30 mM, age of eggs 96 hr) was 0%. For the same compound, the “% of eggs that hatched following treatment” value (body louse eggs; 30 mM, age of eggs 120 hr) was 0%, the “egg hatching in head lice” value (head lice eggs; 10 minutes, 1 minute wash) was “significantly suppress egg hatching” and the “eggs that failed to hatch (did not develop)” value (head lice eggs; n=10 eggs) was 80%.
